Reference: the supplement of paper PMC10307832

How the values were obtained:
Assay in all cases: relative viability (nuclei count vs DMSO), 5 days (fraction); higher = more cells survive
[1] = compound: C1CNCCC1C2=CC(=NN2)C3=CC=NC=C3 + O=C(c1cc(Cc2n[nH]c(=O)c3ccccc23)ccc1F)N1CCN(C(=O)C2CC2)CC1 [Olaparib] (partner 8 µM)
In short: (§1)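 Five library-drug doses in √10 steps were combined with a fixed anchor-drug dose, or a single drug was given alone, by pin tool to lung cancer cell lines in 1536-well plates the day after seeding. Nuclei were stained and counted after 5 days. Relative viability is the nuclei count in treated wells over that in vehicle wells, taken as the median of duplicate plates.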

[2] = compound: C[C@@H](N)c1ccc(C(=O)Nc2ccnc3[nH]ccc23)cc1 + CS(=O)(=O)CCNCc1ccc(-c2ccc3ncnc(Nc4ccc(OCc5cccc(F)c5)c(Cl)c4)c3c2)o1 [Lapatinib] (partner 2 µM)
In short: as §1

[3] = compound: C[C@@H](N)c1ccc(C(=O)Nc2ccnc3[nH]ccc23)cc1 + CC(=O)Nc1cccc(-n2c(=O)n(C3CC3)c(=O)c3c(Nc4ccc(I)cc4F)n(C)c(=O)c(C)c32)c1 [Trametinib] (partner 0.02 µM)
In short: as §1

[4] = compound: C1CNCCC1C2=CC(=NN2)C3=CC=NC=C3 + Cc1nc(NC(=O)N2CCC[C@H]2C(N)=O)sc1-c1ccnc(C(C)(C)C(F)(F)F)c1 [Alpelisib] (partner 2 µM)
In short: as §1

Cell Line | relative viability ([1]; first compound 0.08 µM) | relative viability ([1]; first compound 0.8 µM) | relative viability ([1]; first compound 2.53 µM) | relative viability ([1]; first compound 8 µM) | relative viability ([2]; first compound 0.04 µM) | relative viability ([2]; first compound 0.1265 µM) | relative viability ([2]; first compound 0.4 µM) | relative viability ([2]; first compound 1.265 µM) | relative viability ([2]; first compound 4 µM) | relative viability ([3]; first compound 0.04 µM) | relative viability ([3]; first compound 0.1265 µM) | relative viability ([3]; first compound 0.4 µM) | relative viability ([3]; first compound 1.265 µM) | relative viability ([3]; first compound 4 µM) | relative viability ([4]; first compound 0.08 µM) | relative viability ([4]; first compound 0.8 µM) | relative viability ([4]; first compound 2.53 µM) | relative viability ([4]; first compound 8 µM)
HCC-44 | 0.979 | 1.06 | 0.953 | 0.957 | 1.09 | 1.02 | 1.04 | 1.18 | 0.916 | 1.08 | 1.11 | 1.18 | 1.16 | 0.952 | 0.815 | 0.7 | 0.794 | 0.794
HCC-78 | 0.821 |  | 0.985 | 0.748 | 1.3 | 0.767 | 1.15 | 0.171 | 0.677 | 0.979 | 0.793 | 0.981 | 1.2 | 0.661 | 0.344 |  | 0.37 | 0.411
HCC-366 | 0.341 | 0.412 | 0.498 | 0.36 | 1 | 1.15 | 1.11 |  | 1.04 | 0.345 | 0.332 | 0.388 | 0.399 | 0.375 | 0.561 | 0.233 | 0.426 | 0.378
HCC-827 | 0.597 | 0.0303 | 0.665 | 0.743 | 0.233 | 0.203 | 0.168 | 0.246 | 0.196 |  | 0.703 | 0.758 | 0.763 | 0.653 | 0.97 | 0.668 | 0.916 | 0.972
HOP-62 | 0.234 | 0.386 | 0.275 | 0.47 | 0.929 | 0.784 | 1.02 | 0.512 | 0.982 | 0.425 | 0.356 | 0.35 | 0.377 | 0.365 | 0.734 | 0.933 | 1.11 | 0.858
IA-LM | 1.02 | 0.916 | 0.87 | 0.846 | 0.779 | 0.954 | 0.865 | 1.27 | 0.957 |  |  |  |  |  | 0.834 | 0.763 | 0.762 | 0.837
LC-2-ad | 0.719 | 0.781 | 0.664 | 0.694 | 0.899 | 0.922 | 1 | 0.967 | 0.661 | 0.957 | 0.911 | 0.883 | 0.926 | 0.727 | 0.791 | 0.751 | 0.913 | 0.934
LCLC-97TM1 | 0.341 | 0.399 | 0.429 | 0.326 | 1.53 | 1.45 | 1.65 | 0.83 | 1.36 | 0.211 | 0.193 | 0.227 | 0.259 | 0.18 | 0.224 | 0.205 | 0.241 | 0.225
LCLC-103H | 0.79 | 0.839 | 0.717 | 0.723 |  |  |  |  |  | 0.715 | 0.618 | 0.647 | 0.616 | 0.634 | 1.05 | 0.966 | 1.05 | 1
LK-2 |  | 0.872 | 0.897 | 0.707 | 1.06 | 0.693 | 0.975 | 0.814 | 0.733 | 1.03 | 0.733 | 0.694 | 0.939 | 0.933 | 1.09 | 1.11 | 1.21 | 1.24
NCI-H441 | 0.422 | 0.673 | 0.57 | 0.567 |  |  |  |  |  | 0.522 | 0.61 | 0.478 | 0.38 | 0.405 |  | 0.628 | 0.833 | 0.708
NCI-H522 | 0.63 | 0.712 | 0.726 | 0.803 |  |  |  |  |  | 0.798 | 0.789 | 0.66 | 1.02 | 0.745 |  |  |  | 
NCI-H1299 | 1.03 | 0.97 | 0.946 | 0.91 | 0.908 | 0.93 | 0.91 | 0.837 | 0.737 |  |  |  |  |  | 1.13 | 1.22 | 1.04 | 1.06
NCI-H1563 |  |  |  |  | 0.805 | 0.945 | 0.854 | 0.446 | 1.05 |  |  |  |  |  | 0.709 | 0.932 | 0.95 | 0.989
NCI-H1648 | 1.02 | 0.817 |  | 1.3 |  |  |  |  |  | 0.57 | 0.581 | 0.574 | 0.266 | 0.722 |  |  |  | 
NCI-H1650 | 0.613 | 0.948 | 0.795 | 0.69 | 0.701 | 0.63 | 0.772 | 0.155 | 0.834 | 0.579 | 0.786 | 0.648 | 0.554 | 0.609 |  |  |  | 
NCI-H1703 | 0.375 | 0.72 | 0.443 | 0.431 | 1.24 | 0.982 | 0.85 | 0.847 | 0.541 |  |  |  |  |  | 0.345 | 0.268 | 0.347 | 0.278
NCI-H2342 | 0.419 | 0.388 | 0.486 | 0.491 |  |  |  |  |  | 0.91 | 0.821 | 0.837 | 0.746 | 0.737 |  |  |  | 
SW 900 | 1.02 |  | 0.868 | 0.861 |  |  |  |  |  | 0.888 | 0.861 | 1.04 | 1.14 | 0.993 |  |  |  | 
